Target: T1, human protease activated receptor 1 (PAR1) (Homo sapiens, UniProt P25116)
T1 construct: the cell stably expresses the endogenous human PAR1 receptor and the endogenous purinergic receptor P2Y2; endogenous in cells; host or cells: HEK293-derived recombinant cell line constitutively expressing mitochondrial aequorin
T1 sequence (P25116 22-425): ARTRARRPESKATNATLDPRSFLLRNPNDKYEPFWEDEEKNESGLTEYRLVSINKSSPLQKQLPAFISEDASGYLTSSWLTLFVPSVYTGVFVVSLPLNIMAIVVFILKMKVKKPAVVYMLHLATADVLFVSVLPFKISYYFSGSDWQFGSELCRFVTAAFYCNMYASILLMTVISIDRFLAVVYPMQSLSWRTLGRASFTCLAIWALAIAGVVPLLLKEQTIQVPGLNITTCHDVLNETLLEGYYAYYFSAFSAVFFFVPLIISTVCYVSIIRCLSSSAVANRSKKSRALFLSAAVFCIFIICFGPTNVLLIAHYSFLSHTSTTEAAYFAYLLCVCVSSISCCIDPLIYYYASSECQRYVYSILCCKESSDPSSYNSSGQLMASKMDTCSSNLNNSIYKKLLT
Assay: Cellular functional in vitro test (aequorin luminescence, PAR1 test cell)
Format: cell-based
Details: recombinant HEK293-derived cell line expressing aequorin; PAR1 agonist added at its EC50 5 minutes after test substance
Text: 1.a) Cellular Functional In vitro Test
A recombinant cell line is used to identify […] of the human protease activated receptor 1 (PAR1) and to quantify the activity of the substances described herein. The cell is originally derived from a human embryonal kidney cell (HEK293; ATCC: American Type Culture Collection, Manassas, Va. 20108, USA). The test cell line constitutively expresses a modified form of the calcium-sensitive photoprotein aequorin which, after reconstitution with the cofactor coelenterazine, emits light when the free calcium concentration in the inner mitochondrial compartment is increased (Rizzuto R, Simpson A W, Brini M, Pozzan T.; Nature 1992, 358, 325-327). Additionally, the cell stably expresses the endogenous human PAR1 receptor and the endogenous purinergic receptor P2Y2. The resulting PAR1 test cell responds to stimulation of the endogenous PAR1 or P2Y2 receptor with an intracellular release of calcium ions, which can be quantified through resulting aequorin luminescence with a suitable luminometer (Milligan G, Marshall F, Rees S, Trends in Pharmacological Sciences 1996, 17, 235-237).
For testing the substance specificity, its effect after activation of the endogenous PAR1 receptor is compared to the effect after activation of the endogenous purinergic P2Y2 receptor which utilizes the same intracellular signal path.
Test procedure: The cells are plated out two days (48 hours) before the test in culture medium (DMEM F12, supplemented with 10% FCS, 2 mM glutamine, 20 mM HEPES, 1.4 mM pyruvate, 0.1 mg/ml gentamycin, 0.15% Na bicarbonate; BioWhittaker Cat.# BE04-687Q; B-4800 Verviers, Belgium) in 384-well microtitre plates and kept in a cell incubator (96% atmospheric humidity, 5% V/V CO2, 37° C.). On the day of the test, the culture medium is replaced by a tyrode solution (in mM: 140NaCl, 5l KCl, 1MgCl2, 2CaCl2, 20 glucose, 20 HEPES), which additionally contains the cofactor coelenterazine (25 μM) and glutathione (4 mM), and the microtitre plate is then incubated for a further 3-4 hours. The test substances are then pipetted onto the microtitre plate, and 5 minutes after the transfer of the test substances into the wells of the microtitre plate the plate is transferred into the luminometer, a PAR1 agonist concentration which corresponds to the EC50 is added and the resulting light signal is immediately measured in the luminometer. To distinguish an antagonist substance action from a toxic action, the endogenous purinergic receptor is immediately subsequently activated with agonist (ATP, final concentration 10 μM) and the resulting light signal is measured.

| Structure (SMILES) | IC50 [µM] |
| --- | --- |
| CCc1ccc(C2CC(c3nc(-c4cccc(OC)c4)no3)CN(C(=O)N3CCOCC3)C2)cc1 (racemic) [Example 28, 4-({3-(4-Ethylphenyl)-5-[3-(3-methoxyphenyl)-1,2,4-oxadiazol-5-yl]piperidin-1-yl}carbonyl)-morpholine] | 0.028 |
| CCc1ccc(C2CC(c3nc(-c4ccc(F)cc4F)no3)CN(C(=O)N3CCOCC3)C2)cc1 (racemic) [Example 37, 4-({3-[3-(2,4-Difluorophenyl)-1,2,4-oxadiazol-5-yl]-5-(4-ethylphenyl)piperidin-1-yl}carbonyl)-morpholine] | 0.021 |
| Cc1ccncc1-c1csc(C2CC(c3ccc(C(F)(F)F)cc3)CN(C(=O)N3CCOCC3)C2)n1 (racemic) [Example 113, 4-({3-[4-(4-Methylpyridin-3-yl)-1,3-thiazol-2-yl]-5-[4-(trifluoromethyl)phenyl]piperidin-1-yl}carbonyl)morpholine] | 0.047 |
| O=C(N1CCOCC1)N1CC(c2ccc(C(F)(F)F)cc2)CC(c2nc(-c3cccnc3)cs2)C1 (racemic) [Example 119, 4-({3-(4-Pyridin-3-yl-1,3-thiazol-2-yl)-5-[4-(trifluoromethyl)phenyl]piperidin-1-yl}carbonyl)-morpholine] | 0.068 |
| Cc1ccc(C2CC(c3nc(C(C)C)no3)CN(C(=O)N3CCOCC3)C2)cc1C (racemic) [Example 148, {3-(3,4-Dimethylphenyl)-5-[3-(propan-2-yl)-1,2,4-oxadiazol-5-yl]piperidin-1-yl}(morpholin-4-yl)methanone] | 0.014 |
| CCc1ccc(C2CC(c3nc(CCOC)no3)CN(C(=O)N3CCOCC3)C2)cc1 (racemic) [Example 150, {3-(4-Ethylphenyl)-5-[3-(2-methoxyethyl)-1,2,4-oxadiazol-5-yl]piperidin-1-yl}(morpholin-4-yl)methanone] | 0.019 |
| CCc1ccc(C2CC(c3nc(C(C)(C)C)no3)CN(C(=O)N3CCC(O)CC3)C2)cc1 (racemic) [Example 152] | 0.0481 |
| O=C(N1CCOCC1)N1CC(c2ccc(C(F)(F)F)cc2)CC(c2noc(-c3cccc(F)c3)n2)C1 (racemic) [Example 159, {3-[5-(3-Fluorophenyl)-1,2,4-oxadiazol-3-yl]-5-[4-(trifluoromethyl)phenyl]piperidin-1-yl}-(morpholin-4-yl)methanone] | 0.00461 |
| O=C(N1CCOCC1)N1CC(c2ccc(C(F)(F)F)cc2)CC(c2noc(-c3ccccc3)n2)C1 (racemic) [Example 160, Morpholin-4-yl{3-(5-phenyl-1,2,4-oxadiazol-3-yl)-5-[4(trifluoromethyl)phenyl]piperidin-1-yl}-methanone] | 0.0054 |
| Cc1ccc(C2CC(c3nc(C(C)C)no3)CN(C(=O)N3CCC(C#N)CC3)C2)cc1C (racemic) [Example 197, 1-({3-(3,4-Dimethylphenyl)-5-[3-(propan-2-yl)-1,2,4-oxadiazol-5-yl]piperidin-1-yl}carbonyl)-piperidine-4-carbonitrile] | 0.0775 |
| Cc1ccc(C2CC(c3nc(-c4cccc(F)c4)no3)CN(C(=O)N3CCC(O)CC3)C2)cc1C (racemic) [Example 232, {3-(3,4-Dimethylphenyl)-5-[3-(3-fluorophenyl)-1,2,4-oxadiazol-5-yl]piperidin-1-yl}(4-hydroxy-piperidin-1-yl)methanone] | 0.00644 |
| Cc1ccc(C2CC(c3nc(C(C)C)no3)CN(C(=O)N3CCC(O)CC3)C2)cc1C (racemic) [Example 234, {3-(3,4-Dimethylphenyl)-5-[3-(propan-2-yl)-1,2,4-oxadiazol-5-yl]piperidin-1-yl}(4-hydroxy-piperidin-1-yl)methanone] | 0.0154 |
| Cc1ccncc1-c1noc(C2CC(c3ccc(C(F)(F)F)cc3)CN(C(=O)N3CCOCC3)C2)n1 (racemic) [Example 329, {3-[3-(4-Methylpyridin-3-yl)-1,2,4-oxadiazol-5-yl]-5-[4-(trifluoromethyl)phenyl]piperidin-1-yl}-(morpholin-4-yl)methanone] | 0.024 |

Continued, values first:

| IC50 [µM] | Structure (SMILES) |
| --- | --- |
| 0.00851 | O=C(N1CC(c2ccc(OC(F)(F)F)cc2)CC(c2nc(C3CC3)no2)C1)N1CCC(F)(F)C1 (racemic) [Example 144, {3-(3-Cyclopropyl-1,2,4-oxadiazol-5-yl)-5-[4-(trifluoromethoxy)phenyl]piperidin-1-yl}(3,3-difluoropyrrolidin-1-yl)methanone] |
| 0.00674 | CC(C)c1nc(C2CC(c3ccc(C(F)(F)F)cc3)CN(C(=O)N3CCOCC3)C2)no1 (racemic) [Example 169, Morpholin-4-yl{3-[5-(propan-2-yl)-1,2,4-oxadiazol-3-yl]-5-[4-(trifluoromethyl)phenyl]piperidin-1-yl}methanone] |
| 0.0288 | CC1CN(C(=O)N2CC(c3ccc(C(F)(F)F)cc3)CC(c3nc(C4CC4)no3)C2)C1 (racemic) [Example 181, {3-(3-Cyclopropyl-1,2,4-oxadiazol-5-yl)-5-[4-(trifluoromethyl)phenyl]piperidin-1-yl}(3-methylazetidin-1-yl)methanone] |
| 0.0315 | CCc1ccc(C2CC(c3nc(CCOC)no3)CN(C(=O)N3CCC(O)CC3)C2)cc1 (racemic) [Example 183, {3-(4-Ethylphenyl)-5-[3-(2-methoxyethyl)-1,2,4-oxadiazol-5-yl]piperidin-1-yl}(4-hydroxy-piperidin-1-yl)methanone] |
| 0.0534 | CCc1ccc(C2CC(c3nc(C(C)(C)O)no3)CN(C(=O)N3CCC(O)CC3)C2)cc1 (racemic) [Example 187, {3-(4-Ethylphenyl)-5-[3-(2-hydroxypropan-2-yl)-1,2,4-oxadiazol-5-yl]piperidin-1-yl}(4-hydroxy-piperidin-1-yl)methanone] |
| 0.142 | CC(C)(O)Cc1noc(C2CC(c3ccc(C(F)(F)F)cc3)CN(C(=O)N3CCC(C#N)CC3)C2)n1 (racemic) [Example 212, 1-({3-[3-(2-Hydroxy-2-methylpropyl)-1,2,4-oxadiazol-5-yl]-5-[4-(trifluoromethyl)phenyl]-piperidin-1-yl}carbonyl)piperidine-4-carbonitrile] |
| 0.00172 | Cc1cc(C2CC(c3nc(-c4cccc(F)c4)no3)CN(C(=O)N3CCC(O)CC3)C2)ccc1OC(F)(F)F (racemic) [Example 229, {3-[3-(3-Fluorophenyl)-1,2,4-oxadiazol-5-yl]-5-[3-methyl-4-(trifluoromethoxy)phenyl]piperidin-1-yl}(4-hydroxypiperidin-1-yl)methanone] |
| 0.00281 | Cc1cc(C2CC(c3nc(C4CC4)no3)CN(C(=O)N3CCC(O)CC3)C2)ccc1OC(F)(F)F (racemic) [Example 230, {3-(3-Cyclopropyl-1,2,4-oxadiazol-5-yl)-5-[3-methyl-4-(trifluoromethoxy)phenyl]piperidin-1-yl}(4-hydroxypiperidin-1-yl)methanone] |
| 0.0131 | Cc1cc(-c2noc(C3CC(c4ccc(OC(F)(F)F)cc4)CN(C(=O)N4CCOCC4)C3)n2)no1 (racemic) [Example 249, {3-[3-(5-Methylisoxazol-3-yl)-1,2,4-oxadiazol-5-yl]-5-[4-(trifluoromethoxy)phenyl]piperidin-1-yl}(morpholin-4-yl)methanone] |
| 0.0149 | CC(C)(C)c1noc(C2CC(c3ccc(C(F)(F)F)cc3)CN(C(=O)N3CCC(C#N)CC3)C2)n1 (racemic) [Example 283, 1-({3-(3-tert-Butyl-1,2,4-oxadiazol-5-yl)-5-[4-(trifluoromethyl)phenyl]piperidin-1-yl}carbonyl)-piperidine-4-carbonitrile] |
| 0.00973 | CC(C)c1noc(C2CC(c3ccc(C(F)(F)F)cc3)CN(C(=O)N3CCC(C#N)CC3)C2)n1 (racemic) [Example 284, 1-({3-[3-(Propan-2-yl)-1,2,4-oxadiazol-5-yl]-5-[4-(trifluoromethyl)phenyl]piperidin-1-yl}-carbonyl)piperidine-4-carbonitrile] |
